Data published in the supplement of paper PMC10307832.

Experiments:
Assay in all cases: relative viability (nuclei count vs DMSO), 5 days (fraction); higher = more cells survive
IPA-3 + AZD7762 = compound: C1=CC=C2C(=C1)C=CC(=C2SSC3=C(C=CC4=CC=CC=C43)O)O [IPA-3] + NC(=O)Nc1cc(-c2cccc(F)c2)sc1C(=O)N[C@H]1CCCNC1 [AZD7762] (partner 0.2 µM)
Summary of the method: (§1)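 Dosing by pin tool came one day after lung cancer cell lines were seeded in 1536-well plates, using either one drug or a fixed anchor-drug dose plus five library-drug doses (not always all listed) in √10 steps. After 5 days, nuclei were counted on 4× images. Relative viability is treated-well nuclei count divided by vehicle-well nuclei count, and values are medians of duplicate plates.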

RAF265 + Trametinib = compound: Cn1c(Nc2ccc(C(F)(F)F)cc2)nc2cc(Oc3ccnc(-c4ncc(C(F)(F)F)[nH]4)c3)ccc21 [RAF265] + CC(=O)Nc1cccc(-n2c(=O)n(C3CC3)c(=O)c3c(Nc4ccc(I)cc4F)n(C)c(=O)c(C)c32)c1 [Trametinib] (partner 0.02 µM)
Summary of the method: as §1

IPA-3 + Decitabine = compound: C1=CC=C2C(=C1)C=CC(=C2SSC3=C(C=CC4=CC=CC=C43)O)O [IPA-3] + Nc1ncn([C@H]2C[C@H](O)[C@@H](CO)O2)c(=O)n1 [Decitabine] (partner 2 µM)
Summary of the method: as §1

IPA-3 + Pemetrexed = compound: C1=CC=C2C(=C1)C=CC(=C2SSC3=C(C=CC4=CC=CC=C43)O)O [IPA-3] + Nc1nc2[nH]cc(CCc3ccc(C(=O)N[C@@H](CCC(=O)O)C(=O)O)cc3)c2c(=O)[nH]1 [Pemetrexed] (partner 0.2 µM)
Summary of the method: as §1

| Cell Line | relative viability (IPA-3 + AZD7762; first compound 0.2 µM) | relative viability (IPA-3 + AZD7762; first compound 0.6325 µM) | relative viability (IPA-3 + AZD7762; first compound 2 µM) | relative viability (IPA-3 + AZD7762; first compound 6.325 µM) | relative viability (IPA-3 + AZD7762; first compound 20 µM) | relative viability (RAF265 + Trametinib; first compound 0.01 µM) | relative viability (RAF265 + Trametinib; first compound 0.03162 µM) | relative viability (RAF265 + Trametinib; first compound 0.1 µM) | relative viability (RAF265 + Trametinib; first compound 0.3162 µM) | relative viability (RAF265 + Trametinib; first compound 1 µM) | relative viability (IPA-3 + Decitabine; first compound 0.2 µM) | relative viability (IPA-3 + Decitabine; first compound 0.6325 µM) | relative viability (IPA-3 + Decitabine; first compound 2 µM) | relative viability (IPA-3 + Decitabine; first compound 6.325 µM) | relative viability (IPA-3 + Decitabine; first compound 20 µM) | relative viability (IPA-3 + Pemetrexed; first compound 0.2 µM) | relative viability (IPA-3 + Pemetrexed; first compound 0.6325 µM) | relative viability (IPA-3 + Pemetrexed; first compound 2 µM) | relative viability (IPA-3 + Pemetrexed; first compound 6.325 µM) | relative viability (IPA-3 + Pemetrexed; first compound 20 µM) |
| --- | --- | --- | --- | --- | --- | --- | --- | --- | --- | --- | --- | --- | --- | --- | --- | --- | --- | --- | --- | --- |
| LXF-289 | 1.22 | 1.01 | 1.17 | 1.25 | 1.22 | 0.667 | 0.692 | 0.551 | 0.488 | 0.339 | 0.368 | 0.368 | 0.345 | 0.37 | 0.422 | 0.949 | 0.786 | 0.963 | 0.996 | 0.925 |
| NCI-H23 | 0.207 | 0.274 | 0.261 | 0.32 | 0.363 | 0.404 | 0.262 | 0.239 | 0.239 | 0.17 | 0.285 | 0.313 | 0.319 | 0.329 | 0.299 | 0.694 | 0.628 | 0.764 | 0.644 | 0.68 |
| NCI-H322M | 0.503 | 0.6 | 0.616 | 0.808 | 0.786 | 0.496 | 0.421 | 0.486 | 0.507 | 0.409 | 0.679 | 0.654 | 0.749 | 0.663 | 0.718 | 0.594 | 0.624 | 0.681 | 0.669 | 0.573 |
| NCI-H358 | 0.618 | 0.566 | 0.5 | 0.508 | 0.48 | 0.152 | 0.115 | 0.116 | 0.127 | 0.129 | 0.229 | 0.199 | 0.196 | 0.2 | 0.108 | 0.168 | 0.172 | 0.159 | 0.162 | 0.158 |
| NCI-H441 | 1.32 | 0.972 | 1.33 | 1.21 | 1.22 | 0.598 | 0.504 | 0.461 | 0.436 | 0.457 | 0.268 | 0.257 | 0.205 | 0.234 | 0.21 | 0.258 | 0.262 | 0.27 | 0.236 | 0.236 |
| NCI-H460 | 0.756 | 0.704 | 0.632 | 0.7 | 0.634 | 0.238 | 0.23 | 0.133 | 0.156 | 0.0601 | 0.65 | 0.41 | 0.492 | 0.465 | 0.324 | 0.0552 | 0.0621 | 0.0636 | 0.0626 | 0.0707 |
| NCI-H522 | 0.974 | 0.809 | 0.759 | 1.02 | 0.91 | 0.743 | 0.77 | 0.613 | 0.679 | 0.657 | 0.703 | 0.642 | 0.534 | 0.689 | 0.765 | 1.02 | 0.772 | 0.855 | 1.08 | 1.13 |
| NCI-H596 | 1.1 | 1.07 | 1.11 | 1.21 | 1.3 | 0.836 | 0.75 | 0.813 | 0.826 | 0.638 | 1.09 | 0.984 | 1.06 | 0.963 | 1.08 | 0.592 | 0.497 | 0.469 | 0.552 | 0.435 |
